# ChEMBL document CHEMBL1154502, “Small, non-peptide C5a receptor antagonists: part 2” (Bioorg Med Chem Lett, 2008)
# How the values were obtained:
# [1] = target: T1, C5a anaphylatoxin chemotactic receptor 1 (Homo sapiens, UniProt P21730); assay: Displacement of [125I]C5a from C5a receptor in cAMP differentiated human U937 cells by filtration assay; format: cell-based, U-937
# T1 sequence (P21730 whole entry): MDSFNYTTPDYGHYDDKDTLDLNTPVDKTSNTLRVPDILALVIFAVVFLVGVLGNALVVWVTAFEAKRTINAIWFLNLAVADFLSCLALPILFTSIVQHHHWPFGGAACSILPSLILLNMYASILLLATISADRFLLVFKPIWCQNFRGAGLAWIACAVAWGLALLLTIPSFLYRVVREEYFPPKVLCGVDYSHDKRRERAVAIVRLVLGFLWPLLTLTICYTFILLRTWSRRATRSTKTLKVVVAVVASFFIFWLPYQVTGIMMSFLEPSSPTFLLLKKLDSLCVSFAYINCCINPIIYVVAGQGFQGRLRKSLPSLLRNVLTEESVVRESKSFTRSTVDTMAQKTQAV
# [2] = target: T2, C5a anaphylatoxin chemotactic receptor 1 (Homo sapiens) (UniProt P21730); assay: Binding affinity to C5a receptor assessed as total drug level required for translation of C5a-induced CD11b upregulation in heparinised human whole blood preincubated 1 min prior to C5a challenge by dose-response curve analysis; format: tissue-based
# T2 sequence (whole entry): T1 sequence (P21730 whole entry)
# [3] = Protein binding in human plasma; format: ADME, cell-free; conditions: read-out: PPB (converted)
# [4] = target: T2, C5a anaphylatoxin chemotactic receptor 1 (Homo sapiens); assay: Binding affinity to C5a receptor assessed as free drug level required for translation of C5a-induced CD11b upregulation in heparinised human whole blood preincubated 1 min prior to C5a challenge by dose-response curve analysis; format: tissue-based
# [5] = Dissociation constant, pKa of the compound; format: physicochemical
# [6] = target: T2, C5a anaphylatoxin chemotactic receptor 1 (Homo sapiens); assay: Antagonist activity at C5a receptor assessed as total drug level required to induce 10-fold shift in C5a-stimulated CD11b upregulation in heparinised human whole blood preincubated 1 min prior to C5a challenge by dose-response curve analysis; format: functional, tissue-based
# [7] = Octanol-neutral buffer distribution coefficient, log D at pH 7.4; format: physicochemical
# [8] = target: T2, C5a anaphylatoxin chemotactic receptor 1 (Homo sapiens); assay: Antagonist activity at C5a receptor assessed as free drug level required to induce 10-fold shift in C5a-stimulated CD11b upregulation in heparinised human whole blood preincubated 1 min prior to C5a challenge by dose-response curve analysis; format: functional, tissue-based
# [9] = target: T1, C5a anaphylatoxin chemotactic receptor 1; assay: Antagonist activity at C5a receptor assessed as inhibition of C5a-induced elastase release in human neutrophils during degranulation preincubated 5 mins prior to C5a challenge using p-nitroanilide as substrate; format: functional
# [10] = Lipophilicity, log D of the compound; format: physicochemical; conditions: octanol/water
logD [7],SMILES,IC50 [1] [nM],IC50 [9] [nM],also measured
> 5,CCc1ccccc1C(=O)N(C1CCC2(CC1)OCCO2)C(Cc1ccc(Cl)cc1)CN(C)C (racemic),27,25,Activity [2]: 178 nM; fraction unbound [3]: 0.004; Activity [4]: 0.63 nM; pKa [5]: 7.4; Activity [6]: 4.8 µM; Activity [8]: 17 nM
> 5,Clc1ccc2nc(-c3csc4ccccc34)n(C3CCC4(CC3)OCCO4)c2c1Cl,790,–,–
4,COc1cccc(-c2ncc(Cc3ccc(Cl)cc3)n2C2CCC3(CC2)OCCO3)c1,> 1000,–,–
–,COCC(Cc1ccc(Cl)cc1)N(C(=O)c1csc2ccccc12)C1CCC2(CC1)OCCO2 (racemic),12,27,–
–,CCOC(=O)C(Cc1ccc(Cl)cc1)N(C(=O)c1cccc2ccccc12)C1CCC2(CC1)OCCO2 (racemic),3,32,–
–,O=C(c1csc2ccccc12)N(C1CCC2(CC1)OCCO2)C(CO)Cc1ccc(Cl)cc1 (racemic),> 1000,–,–
–,c1ccc2c(-c3ncc(CC4CCCCC4)n3C3CCC4(CC3)OCCO4)csc2c1,47,850,–
> 5,CCc1ccccc1C(=O)N(C1CCC2(CC1)OCCO2)C(Cc1ccc(Cl)cc1)c1noc(C)n1 (racemic),8,40,–
–,CCc1ccccc1C(=O)N(C1CCC2(CC1)OCCO2)C(Cc1ccc(Cl)cc1)C(=O)O (racemic),350,–,–
–,Clc1ccc(Cc2cnc(-c3cccc4ccccc34)n2C2CCC3(CC2)OCCO3)cc1,90,877,–
> 4,Clc1ccc(Cc2cnc(-c3csc4ccccc34)n2C2CCC3(CC2)OCCO3)cc1,500,–,–
–,COC(=O)C(Cc1ccc(Cl)cc1)N(C(=O)c1csc2ccccc12)C1CCC2(CC1)OCCO2 (racemic),15,172,–
3.3,CN(C)Cc1ccccc1C(=O)N(CCc1ccc(Cl)cc1)C1CCC2(CC1)OCCO2,500,–,fraction unbound [3]: 0.004; pKa [5]: 8.4; Activity [6]: > 10 µM; Activity [8]: > 40 nM
–,Clc1cccc2nc(-c3csc4ccccc34)n(C3CCC4(CC3)OCCO4)c12,325,–,–
4.6,Cc1nc(-c2csc3ccccc23)n(C2CCC3(CC2)OCCO3)c1Cc1ccc(Cl)cc1,90,–,–
4.6,CN(C)CC(Cc1ccc(Cl)cc1)N(C(=O)c1cccc2ccccc12)C1CCC2(CC1)OCCO2 (racemic),13,22,–
–,CCc1ccccc1C(=O)N(C1CCC2(CC1)OCCO2)[C@H](CCN(C)C)Cc1ccc(Cl)cc1,> 1000,–,–
–,CC(=O)C(Cc1ccc(Cl)cc1)N(C(=O)c1csc2ccccc12)C1CCC2(CC1)OCCO2 (racemic),45,–,–
–,Clc1ccc(Cc2nnc(-c3cccc4ccccc34)n2C2CCC3(CC2)OCCO3)cc1,> 1000,–,–
–,Clc1ccc(CC2CN=C(c3csc4ccccc34)N2C2CCC3(CC2)OCCO3)cc1 (centres undefined),> 1000,–,–
3.4,CCc1ccccc1C(=O)N(C1CCC2(CC1)OCCO2)[C@H](CCN1CCOCC1)Cc1ccc(Cl)cc1,200,–,Activity [2]: 22 nM; fraction unbound [3]: 0.027; Activity [4]: 0.6 nM; Activity [6]: 4.4 µM; Activity [8]: 119 nM
–,O=C(Nc1ccc(F)cc1F)N1CCC(N(CCc2ccc(Cl)cc2)C(=O)c2csc3ccccc23)CC1,–,–,logD [10]: < 4
